Experimental findings from ChEMBL document CHEMBL1201862, “PubChem BioAssay data set” (2004) are described below.

Assay [1] concerns the target Melanin-concentrating hormone receptor 1 (Homo sapiens, UniProt Q99705). Briefly: Fluorescence-based counterscreen for antagonists of the G-protein coupled receptor 7 (GPR7): cell-based high throughput dose response assay to identify antagonists of the melanin-concentrating hormone receptor 1 (MCHR1). The class given is functional.
Assay [2] addresses Voltage-dependent T-type calcium channel subunit alpha-1H (Homo sapiens, UniProt O95180). The assay is classed as functional.
The test system of assay [3] is Streptococcus. As to the kind of experiment: Luminescence Microorganism-Based Dose Response Follow up to Identify Compounds Cytotoxic to Streptococcus. [Related pubchem assays: 1677 (Project Summary), 1915, 1914, 1902 (Retest at Dose), 1900 (Counter Screen), 1662 (Primary HTS)]. The assay is classed as functional, organism-based.
In assay [4] the test system is Streptococcus sp. 'group A'. As to the kind of experiment: growth inhibition of control SK(-) GAS strain, dose response, counter-screen for streptokinase expression inhibitor project, luminescence, kanamycin, BacTiterGlo, confirmation (AID 1900). The assay is classed as functional, organism-based.
A further assay deals with T1, Streptokinase A (Streptococcus pyogenes serotype M1, UniProt P10520).
T1 sequence (P10520 whole entry): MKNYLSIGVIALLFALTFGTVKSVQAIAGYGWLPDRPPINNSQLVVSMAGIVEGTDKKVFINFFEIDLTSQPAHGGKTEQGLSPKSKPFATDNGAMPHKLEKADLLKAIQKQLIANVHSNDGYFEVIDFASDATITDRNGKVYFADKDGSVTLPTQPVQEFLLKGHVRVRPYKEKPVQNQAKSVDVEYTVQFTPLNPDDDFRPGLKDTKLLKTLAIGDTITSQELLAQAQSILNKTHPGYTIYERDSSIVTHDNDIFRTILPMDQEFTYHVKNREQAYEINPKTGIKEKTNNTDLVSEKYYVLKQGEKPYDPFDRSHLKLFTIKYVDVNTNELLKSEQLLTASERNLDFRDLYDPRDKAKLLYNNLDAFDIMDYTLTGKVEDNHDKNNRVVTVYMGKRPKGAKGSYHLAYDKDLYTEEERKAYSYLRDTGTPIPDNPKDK
Briefly: S. pyogenes streptokinase expression inhibitors, potency, dose response, plasminogen activation absorbance, OD405 (AID 1914).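 Also: secreted streptokinase activity via plasminogen activation per viability signal from cell pellet.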 The assay is classed as functional, Streptococcus pyogenes M1 GAS.

For assay [5], the system named is Streptococcus. Briefly: Group A Streptococcus viability loss, dose response, counter-screen for streptokinase expression inhibitor project, luminescence, BacTiterGlo (AID 1915).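 Also: potency for reduction of bacterial viability or growth.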 The class given is functional, organism-based.
The target of the next assay is Protein Rev (Human immunodeficiency virus type 1 group M subtype B (isolate WMJ22)(HIV-1), UniProt P05866). Briefly: HIV-1 Rev-RRE RNA binding disruptors, dose response, biochemical, protein-RNA interaction (AID 842). Also on record: species or system Human immunodeficiency virus 1.
In the next assay the target is Procathepsin L (Homo sapiens, UniProt P07711).
For assay [6], the target named is Alkaline phosphatase, placental type (Homo sapiens, UniProt P05187). As to the kind of experiment: PLAP enzyme inhibitors, confirmation, biochemical, luminescence (AID 1512). The assay is classed as functional.
The target in a further assay is Aspartyl aminopeptidase (Plasmodium falciparum 3D7, UniProt Q8I2J3).
A short description of assay [7]: polyadenylation inhibitors in yeast reporter, dose response, luminescence, S. cerevisiae SKY197-pL101 (AID 2525). The class given is functional, cell-based.
Assay [8] concerns the target T2, Short transient receptor potential channel 4 (Mus musculus, UniProt Q9QUQ5).
T2 sequence (Q9QUQ5 whole entry): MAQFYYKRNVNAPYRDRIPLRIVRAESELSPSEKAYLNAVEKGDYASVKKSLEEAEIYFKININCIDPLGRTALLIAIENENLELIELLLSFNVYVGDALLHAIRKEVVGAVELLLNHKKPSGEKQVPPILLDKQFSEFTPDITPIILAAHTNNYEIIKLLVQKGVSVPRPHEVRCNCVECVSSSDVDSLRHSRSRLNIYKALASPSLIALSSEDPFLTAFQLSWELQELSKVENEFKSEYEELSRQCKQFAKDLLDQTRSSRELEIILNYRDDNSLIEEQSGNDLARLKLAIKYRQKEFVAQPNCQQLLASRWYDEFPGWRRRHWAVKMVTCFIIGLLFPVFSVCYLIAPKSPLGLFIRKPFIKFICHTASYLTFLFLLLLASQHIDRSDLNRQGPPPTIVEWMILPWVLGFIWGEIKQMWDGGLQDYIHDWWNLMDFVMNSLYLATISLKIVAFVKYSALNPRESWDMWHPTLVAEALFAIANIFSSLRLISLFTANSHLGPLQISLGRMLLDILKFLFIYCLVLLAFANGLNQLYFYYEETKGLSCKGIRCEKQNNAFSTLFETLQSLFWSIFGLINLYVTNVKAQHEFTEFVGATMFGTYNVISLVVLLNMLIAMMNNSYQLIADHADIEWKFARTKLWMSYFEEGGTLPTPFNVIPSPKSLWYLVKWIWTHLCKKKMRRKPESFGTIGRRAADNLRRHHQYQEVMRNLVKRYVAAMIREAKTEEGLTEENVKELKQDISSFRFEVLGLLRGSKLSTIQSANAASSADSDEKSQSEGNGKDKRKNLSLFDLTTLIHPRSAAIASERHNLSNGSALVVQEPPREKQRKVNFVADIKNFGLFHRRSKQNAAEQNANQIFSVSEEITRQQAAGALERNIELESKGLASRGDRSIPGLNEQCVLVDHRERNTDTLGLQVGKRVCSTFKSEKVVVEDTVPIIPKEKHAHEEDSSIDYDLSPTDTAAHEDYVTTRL
Briefly: mouse TRPC4 channel inhibitors, dose response, cell-based, HEK293 TRPC4/mu-opioid, Fluo-4 calcium (AID 434942).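 Also: potency of inhibitors blocking the TRPC4 calcium response.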 The assay is classed as functional.

Assay [9] has as its target G-protein coupled receptor 35 (Homo sapiens, UniProt Q9HC97). Briefly: GPR35 antagonists blocking zaprinast-driven arrestin recruitment, primary screen, imaging, U2OS, beta-arrestin-GFP, zaprinast agonist (AID 2058).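 Also: antagonist potency meaning inhibition of agonist-induced arrestin redistribution.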 The assay is classed as functional.
Another assay addresses T3, Insulin-degrading enzyme (Homo sapiens, UniProt P14735).
T3 sequence (P14735 whole entry): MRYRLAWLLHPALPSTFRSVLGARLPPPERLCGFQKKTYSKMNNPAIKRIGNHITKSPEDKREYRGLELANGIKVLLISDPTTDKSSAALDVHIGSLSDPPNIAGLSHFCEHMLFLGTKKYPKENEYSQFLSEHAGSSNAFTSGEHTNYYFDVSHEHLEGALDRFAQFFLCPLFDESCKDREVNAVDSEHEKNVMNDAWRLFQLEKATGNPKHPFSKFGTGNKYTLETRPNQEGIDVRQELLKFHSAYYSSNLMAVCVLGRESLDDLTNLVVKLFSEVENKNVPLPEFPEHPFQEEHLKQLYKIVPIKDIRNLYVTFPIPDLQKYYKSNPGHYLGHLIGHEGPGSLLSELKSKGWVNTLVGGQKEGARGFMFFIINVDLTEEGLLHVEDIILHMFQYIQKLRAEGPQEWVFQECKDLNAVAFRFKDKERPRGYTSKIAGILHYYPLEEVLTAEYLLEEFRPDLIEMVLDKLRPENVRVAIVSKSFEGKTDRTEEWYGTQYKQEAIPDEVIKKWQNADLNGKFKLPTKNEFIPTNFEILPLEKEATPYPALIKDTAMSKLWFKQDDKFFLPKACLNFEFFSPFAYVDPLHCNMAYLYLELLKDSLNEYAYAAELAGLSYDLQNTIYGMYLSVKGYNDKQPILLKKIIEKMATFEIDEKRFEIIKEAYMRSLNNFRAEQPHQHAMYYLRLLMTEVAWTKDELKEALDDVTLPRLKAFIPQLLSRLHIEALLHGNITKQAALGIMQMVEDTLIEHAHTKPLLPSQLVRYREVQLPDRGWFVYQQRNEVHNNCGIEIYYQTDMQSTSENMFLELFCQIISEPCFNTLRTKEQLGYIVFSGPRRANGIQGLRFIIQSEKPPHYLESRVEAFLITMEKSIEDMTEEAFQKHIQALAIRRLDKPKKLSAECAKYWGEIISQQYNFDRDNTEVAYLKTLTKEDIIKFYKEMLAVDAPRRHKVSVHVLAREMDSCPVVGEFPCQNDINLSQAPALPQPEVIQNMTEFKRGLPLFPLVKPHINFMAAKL
As to the kind of experiment: Dose Response: Fluorescence polarization-based cell-based high throughput dose response assay for inhibitors of insulin-degrading enzyme (IDE). [Related pubchem assays: 434962 (Primary screen (IDE inhibitors in singlicate)), 449730 (Counterscreen (Cytotoxicity in triplicate)), 435028 (Confirmation (IDE inhibitors in triplicate)), 434984 (Summary …. The assay is classed as functional.

Assay [10] is described as follows: Counterscreen for IDE inhibitors: Luminescence-based cell-based high throughput dose response assay to identify compounds that are cytotoxic to HEK cells. [Related pubchem assays: 434962 (Primary screen (IDE inhibitors in singlicate)), 449730 (Counterscreen (Cytotoxicity in triplicate)), 435028 (Confirmation (IDE inhibitors in triplicate)) …. The assay is classed as functional. Conditions: HEK293.

The target in assay [11] is Heat shock cognate 71 kDa protein (Homo sapiens, UniProt P11142). Briefly: In Vitro Hsc70 Dose Response Fluorescence Polarization Assay. [Related pubchem assays: 1072 ].
For assay [12], the target named is Glyceraldehyde-3-phosphate dehydrogenase (Homo sapiens, UniProt P04406).
Assay [13] concerns the target Muscarinic acetylcholine receptor M4 (Rattus norvegicus, UniProt P08485). As to the kind of experiment: Discovery of novel allosteric modulators of the M1 muscarinic receptor: Agonist NMS competition at M4. [Related pubchem assays: 626, 1488, 1741 ]. The class given is functional.
Assay [14] deals with Muscarinic acetylcholine receptor M1 (Rattus norvegicus, UniProt P08482). As to the kind of experiment: Discovery of novel allosteric modulators of the M1 muscarinic receptor: Agonist NMS binding at M1. [Related pubchem assays: 626 ].
Assay [15] addresses Muscarinic acetylcholine receptor M2 (Homo sapiens, UniProt P08172). Briefly: Discovery of novel allosteric modulators of the M1 muscarinic receptor: Agonist NMS competition at M2. [Related pubchem assays: 626 (Discovery of Novel Allosteric Modulators of the M1 Muscarinic Receptor: Agonist Primary Screen), 1488 (Discovery of novel allosteric modulators of the M1 muscarinic receptor: Agonist Confirmation Assay)]. The class given is functional.

In assay [16] the target is Muscarinic acetylcholine receptor M3 (Homo sapiens, UniProt P20309). Briefly: Discovery of novel allosteric modulators of the M1 muscarinic receptor: Agonist NMS competition at M3. [Related pubchem assays: 1488 (Discovery of novel allosteric modulators of the M1 muscarinic receptor: Agonist Confirmation Assay), 626 (Discovery of Novel Allosteric Modulators of the M1 Muscarinic Receptor: Agonist Primary Screen)]. The assay is classed as functional.

In assay [17] the target is Muscarinic acetylcholine receptor M5 (Homo sapiens, UniProt P08912). Briefly: Discovery of novel allosteric modulators of the M1 muscarinic receptor: Agonist NMS competition at M5. [Related pubchem assays: 1488 (Discovery of novel allosteric modulators of the M1 muscarinic receptor: Agonist Confirmation Assay), 626 (Discovery of Novel Allosteric Modulators of the M1 Muscarinic Receptor: Agonist Primary Screen)]. The assay is classed as functional.

Each structure is given as a SMILES string. Calls of active or inactive are those of the source.

Chain of Muscarinic acetylcholine receptor M3 (P20309 whole entry): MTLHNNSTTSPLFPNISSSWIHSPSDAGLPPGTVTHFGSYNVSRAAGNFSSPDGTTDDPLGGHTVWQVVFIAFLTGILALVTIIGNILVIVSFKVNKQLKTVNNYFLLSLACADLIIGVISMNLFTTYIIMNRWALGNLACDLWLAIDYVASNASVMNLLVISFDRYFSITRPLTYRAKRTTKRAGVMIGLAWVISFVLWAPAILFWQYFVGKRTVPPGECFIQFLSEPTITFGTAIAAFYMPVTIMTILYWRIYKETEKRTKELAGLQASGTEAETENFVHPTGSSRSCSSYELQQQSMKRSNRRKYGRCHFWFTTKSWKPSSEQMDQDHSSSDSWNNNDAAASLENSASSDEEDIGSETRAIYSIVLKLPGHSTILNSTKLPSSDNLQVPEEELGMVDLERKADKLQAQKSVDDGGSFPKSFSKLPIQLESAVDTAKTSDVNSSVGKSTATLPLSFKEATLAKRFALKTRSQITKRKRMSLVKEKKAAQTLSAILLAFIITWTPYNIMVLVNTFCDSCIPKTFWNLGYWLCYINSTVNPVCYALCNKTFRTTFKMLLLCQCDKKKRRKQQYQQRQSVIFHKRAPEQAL
Chain of Muscarinic acetylcholine receptor M5 (P08912 whole entry): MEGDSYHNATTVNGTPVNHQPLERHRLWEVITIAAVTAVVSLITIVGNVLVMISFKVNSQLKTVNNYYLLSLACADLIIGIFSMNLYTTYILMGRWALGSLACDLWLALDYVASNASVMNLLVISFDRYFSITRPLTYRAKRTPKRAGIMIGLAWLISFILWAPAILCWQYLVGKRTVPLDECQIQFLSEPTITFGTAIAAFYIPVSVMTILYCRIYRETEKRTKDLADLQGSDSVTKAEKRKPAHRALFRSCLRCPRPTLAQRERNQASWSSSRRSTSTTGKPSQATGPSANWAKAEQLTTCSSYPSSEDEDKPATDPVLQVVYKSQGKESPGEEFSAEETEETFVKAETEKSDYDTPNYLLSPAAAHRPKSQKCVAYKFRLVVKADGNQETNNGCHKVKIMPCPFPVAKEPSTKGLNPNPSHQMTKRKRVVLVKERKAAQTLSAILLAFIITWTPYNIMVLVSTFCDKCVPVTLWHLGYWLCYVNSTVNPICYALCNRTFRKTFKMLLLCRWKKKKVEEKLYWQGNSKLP
Chain of Protein Rev (P05866 whole entry): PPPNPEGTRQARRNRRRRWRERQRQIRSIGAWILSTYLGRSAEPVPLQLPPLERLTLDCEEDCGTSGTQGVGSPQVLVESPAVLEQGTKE
Chain of Procathepsin L (P07711 whole entry): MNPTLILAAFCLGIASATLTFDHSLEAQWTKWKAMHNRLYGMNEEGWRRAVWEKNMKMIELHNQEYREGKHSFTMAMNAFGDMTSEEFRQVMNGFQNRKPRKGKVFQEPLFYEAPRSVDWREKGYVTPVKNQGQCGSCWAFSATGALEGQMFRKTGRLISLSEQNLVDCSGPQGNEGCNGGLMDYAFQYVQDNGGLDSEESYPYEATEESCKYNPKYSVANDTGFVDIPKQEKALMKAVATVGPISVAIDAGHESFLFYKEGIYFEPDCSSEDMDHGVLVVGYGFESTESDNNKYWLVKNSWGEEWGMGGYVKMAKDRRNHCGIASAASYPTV
Chain of Aspartyl aminopeptidase (Q8I2J3 whole entry): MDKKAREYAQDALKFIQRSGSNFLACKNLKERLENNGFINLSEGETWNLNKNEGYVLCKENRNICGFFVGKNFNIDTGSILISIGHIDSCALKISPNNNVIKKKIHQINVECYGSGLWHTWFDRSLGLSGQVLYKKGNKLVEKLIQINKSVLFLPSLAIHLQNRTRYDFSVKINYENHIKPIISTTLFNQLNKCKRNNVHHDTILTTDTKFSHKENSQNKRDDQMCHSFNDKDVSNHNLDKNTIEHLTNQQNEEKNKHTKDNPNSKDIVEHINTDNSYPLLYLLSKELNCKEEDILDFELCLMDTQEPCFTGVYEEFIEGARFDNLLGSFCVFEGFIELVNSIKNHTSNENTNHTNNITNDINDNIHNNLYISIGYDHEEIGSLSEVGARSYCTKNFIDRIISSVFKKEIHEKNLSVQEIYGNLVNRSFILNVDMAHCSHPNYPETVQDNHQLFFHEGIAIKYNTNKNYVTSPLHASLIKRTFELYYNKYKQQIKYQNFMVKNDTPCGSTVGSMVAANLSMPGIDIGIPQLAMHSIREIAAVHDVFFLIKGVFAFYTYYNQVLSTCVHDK
Chain of Melanin-concentrating hormone receptor 1 (Q99705 whole entry): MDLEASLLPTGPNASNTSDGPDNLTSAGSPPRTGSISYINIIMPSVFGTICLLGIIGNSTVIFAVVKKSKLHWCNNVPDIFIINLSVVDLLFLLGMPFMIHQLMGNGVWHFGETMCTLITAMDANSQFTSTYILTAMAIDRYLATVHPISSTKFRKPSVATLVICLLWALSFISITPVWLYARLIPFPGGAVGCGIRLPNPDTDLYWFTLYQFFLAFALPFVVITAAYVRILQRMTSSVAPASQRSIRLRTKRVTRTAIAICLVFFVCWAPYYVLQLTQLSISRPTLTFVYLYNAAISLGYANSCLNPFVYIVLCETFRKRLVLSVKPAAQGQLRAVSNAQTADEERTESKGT
Chain of Muscarinic acetylcholine receptor M1 (P08482 whole entry): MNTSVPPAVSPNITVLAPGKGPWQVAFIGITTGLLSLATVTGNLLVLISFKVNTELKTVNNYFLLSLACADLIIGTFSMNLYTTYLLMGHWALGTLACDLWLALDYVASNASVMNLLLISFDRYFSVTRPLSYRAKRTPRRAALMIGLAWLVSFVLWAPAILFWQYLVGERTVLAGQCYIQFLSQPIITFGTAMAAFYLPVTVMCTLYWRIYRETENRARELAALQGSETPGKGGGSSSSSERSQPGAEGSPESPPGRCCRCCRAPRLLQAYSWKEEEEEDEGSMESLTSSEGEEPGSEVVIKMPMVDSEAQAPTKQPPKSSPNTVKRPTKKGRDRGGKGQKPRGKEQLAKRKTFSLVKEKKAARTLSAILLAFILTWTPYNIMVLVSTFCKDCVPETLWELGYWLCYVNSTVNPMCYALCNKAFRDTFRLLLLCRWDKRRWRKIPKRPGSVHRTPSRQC
Chain of Glyceraldehyde-3-phosphate dehydrogenase (P04406 whole entry): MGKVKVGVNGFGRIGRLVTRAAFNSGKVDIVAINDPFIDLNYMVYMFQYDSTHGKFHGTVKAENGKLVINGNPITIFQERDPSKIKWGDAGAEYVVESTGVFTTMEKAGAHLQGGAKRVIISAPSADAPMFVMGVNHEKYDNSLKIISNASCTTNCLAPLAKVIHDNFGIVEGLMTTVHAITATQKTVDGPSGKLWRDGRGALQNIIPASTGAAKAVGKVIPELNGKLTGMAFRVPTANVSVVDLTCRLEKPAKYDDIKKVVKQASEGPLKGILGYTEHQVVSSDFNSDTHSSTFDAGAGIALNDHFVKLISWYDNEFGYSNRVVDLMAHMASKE
Chain of Muscarinic acetylcholine receptor M2 (P08172 whole entry): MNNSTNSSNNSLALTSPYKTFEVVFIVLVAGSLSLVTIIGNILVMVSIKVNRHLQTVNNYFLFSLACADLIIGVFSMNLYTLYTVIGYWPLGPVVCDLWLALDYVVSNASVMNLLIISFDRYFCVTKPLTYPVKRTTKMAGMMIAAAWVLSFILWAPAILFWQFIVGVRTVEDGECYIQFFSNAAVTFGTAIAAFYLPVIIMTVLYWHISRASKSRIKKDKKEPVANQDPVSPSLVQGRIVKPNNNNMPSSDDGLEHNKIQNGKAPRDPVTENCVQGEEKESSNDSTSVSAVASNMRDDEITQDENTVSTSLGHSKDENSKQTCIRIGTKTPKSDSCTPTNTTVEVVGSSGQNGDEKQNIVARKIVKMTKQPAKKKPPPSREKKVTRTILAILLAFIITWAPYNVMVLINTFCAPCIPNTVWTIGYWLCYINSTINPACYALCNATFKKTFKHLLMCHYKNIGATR
Chain of Heat shock cognate 71 kDa protein (P11142 whole entry): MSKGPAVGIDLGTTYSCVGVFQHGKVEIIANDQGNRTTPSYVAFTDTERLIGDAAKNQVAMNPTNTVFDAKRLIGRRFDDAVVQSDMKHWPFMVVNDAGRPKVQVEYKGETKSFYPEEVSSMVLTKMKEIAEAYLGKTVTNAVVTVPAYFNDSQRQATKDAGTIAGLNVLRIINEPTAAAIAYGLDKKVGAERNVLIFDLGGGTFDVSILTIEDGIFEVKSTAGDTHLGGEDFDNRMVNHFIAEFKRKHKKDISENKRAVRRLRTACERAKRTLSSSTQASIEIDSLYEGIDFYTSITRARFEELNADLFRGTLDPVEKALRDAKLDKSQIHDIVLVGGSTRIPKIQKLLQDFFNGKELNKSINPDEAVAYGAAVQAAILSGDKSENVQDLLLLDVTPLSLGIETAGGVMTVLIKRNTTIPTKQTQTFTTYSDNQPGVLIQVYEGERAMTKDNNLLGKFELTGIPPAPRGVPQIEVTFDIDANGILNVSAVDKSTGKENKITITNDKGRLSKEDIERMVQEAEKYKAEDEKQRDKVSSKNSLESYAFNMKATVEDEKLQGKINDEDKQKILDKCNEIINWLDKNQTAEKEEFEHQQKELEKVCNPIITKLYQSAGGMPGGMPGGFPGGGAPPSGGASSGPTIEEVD
Chain of Alkaline phosphatase, placental type (P05187 whole entry): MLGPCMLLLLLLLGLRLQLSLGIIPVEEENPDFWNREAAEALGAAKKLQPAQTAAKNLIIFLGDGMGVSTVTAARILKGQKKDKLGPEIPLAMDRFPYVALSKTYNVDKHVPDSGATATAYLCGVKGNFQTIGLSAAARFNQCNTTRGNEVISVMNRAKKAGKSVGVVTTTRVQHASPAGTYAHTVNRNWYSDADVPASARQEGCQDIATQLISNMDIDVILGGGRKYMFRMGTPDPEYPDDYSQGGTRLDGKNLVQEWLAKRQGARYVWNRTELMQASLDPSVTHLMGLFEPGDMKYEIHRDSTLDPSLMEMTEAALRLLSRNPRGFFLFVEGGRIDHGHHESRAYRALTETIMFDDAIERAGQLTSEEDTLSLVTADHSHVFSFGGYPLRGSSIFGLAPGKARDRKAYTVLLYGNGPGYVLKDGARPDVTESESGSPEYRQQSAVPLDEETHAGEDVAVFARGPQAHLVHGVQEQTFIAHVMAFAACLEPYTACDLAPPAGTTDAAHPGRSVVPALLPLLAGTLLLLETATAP

Turning to `Cc1ccccc1CN1C[C@@H]2C[C@@H](c3c[nH]nc3-c3ccc(F)cc3)N3CCC[C@@]23C1=O`, the IC50 in [1] is on record as 25.4 µM (not active).
For `C=CCOc1c(Br)cc(CNc2nccs2)cc1OC`, the EC50 in assay [2] was 6.12 µM (active).
`COCc1cc(Sc2c(Cl)cccc2Cl)nc(-c2ccccc2)n1`: the EC50 in the assay on Streptococcus [3] is > 500 µM (not active); in assay [4], 8.22 µM (active); on Streptokinase A, 9.31 µM (active); in the assay with Streptococcus [5] it was > 150 µM (not active).
Take `CC1=NOC(=O)/C1=C/c1ccc(N(C)C)cc1`: the IC50 on Protein Rev is 2.86 µM (active).
For `O=C(NCc1cccnc1)NC1(C(F)(F)F)Oc2ccc(Cl)cc2O1` (configuration not stated), the 50% inhibitory concentration (IC50) at Procathepsin L is > 59.6 µM (not active); in assay [6], 8.54 µM (active); at Aspartyl aminopeptidase, 1.58 µM (active).
As to `O=C(O)CN1C(=O)/C(=C\c2ccc(N3CCCCC3)o2)SC1=S`, in assay [7], the EC50 was 12.4 µM (active).
As for `COc1ccc2nc(C)cc(NCc3ccc(F)cc3)c2c1`, in assay [8], the EC50 was 5.96 µM (active). Moreover, in assay [9], the IC50 is 2.6 µM (active).
Consider `Cn1c2ccccc2c2cc(/C=C(\NC(=O)c3ccccc3)C(=O)NCC(=O)O)ccc21`, for which the IC50 on Insulin-degrading enzyme was 42.5 µM (not active); in assay [10], > 55.7 µM (not active).
On to `Nc1ncnc2c1ncn2[C@@H]1O[C@H](COP(=O)(O)OP(=O)(O)O)[C@@H](O)[C@H]1O` [ADENOSINE DIPHOSPHATE], for which the IC50 was 0.28 µM (active) in assay [11] and > 5 µM (inconclusive) in assay [12].
Turning to `CCOC(=O)N1CCC(NCCNC(=O)c2ccccc2)CC1`, the EC50 is 21.4 µM (inconclusive) in [13]; 36.5 µM (inconclusive) in assay [14]; 28 µM (inconclusive) in assay [15]; 12.4 µM (inconclusive) in assay [16]; 64.6 µM (inconclusive) in [17].
